This is an account of results in patent US20240124470A1, “FIVE-MEMBERED RING DERIVATIVE AND MEDICAL USE THEREOF” (SICHUAN HAISCO PHARMACEUTICAL CO., LTD., priority 2020, published 2024).

Counter-ions that a name gives are not always drawn. Like-named read-outs stand apart in the source and are kept apart here.

Data set [1] in a line: Stability test in canine liver microsomes. It counts as in vitro ADME. The settings on record: dog. As for the experimental part: 6. Stability Test in Canine Liver Microsomes At 37° C., 1 μM of the test compound was incubated with canine liver microsomes (0.5 mg/mL) supplemented with NADPH regeneration system for 5, 15, 30, 45 and 60 minutes, and then LC-MS/MS method was used to detect the concentration of the test compound in the generated sample. The half-life (T1/2) and inherent clearance rate (CLint(mic)) of the compound in canine liver microsome solution were obtained by calculating at the corresponding time points and the remaining percentage of the compound.
Background: Microsomes from liver hold many membrane-bound enzymes, among them those of drug oxidation.

A further data set addresses T1, hERG potassium channel (Homo sapiens, UniProt Q12809).
T1 construct: expressed in transfected cells
The experiment in a line: Effects on hERG potassium channels, manual whole cell patch-clamp in CHO cells. The format is cell-based. The following applies: hERG potassium current, room temperature. From the text: 2. Effects of the Compounds on hERG Potassium Channels
Experimental platform: electrophysiological manual patch-clamp system
Cell line: Chinese hamster ovary (CHO) cells stably expressing hERG potassium ion channel
Experimental method: For CHO (Chinese Hamster Ovary) cells stably expressing hERG potassium channel, whole cell patch-clamp technique was used to recorded hERG potassium channel current at room temperature in this experiment. The glass microelectrode is made of a glass electrode blank (BF150-86-10, Sutter) by a puller. The tip resistance after filling the liquid in the electrode is about 2-5 MΩ. The glass microelectrode can be connected to the patch-clamp amplifier by inserting the glass microelectrode into an amplifier probe. The clamping voltage and data recording are controlled and recorded by the pClamp 10 software through a computer. The sampling frequency is 10 kHz, and the filtering frequency is 2 kHz. After the whole cell records were obtained, the cells were clamped at −80 mV, and the step voltage that induced the hERG potassium current (IhERG) was depolarized from −80 mV to +20 mV for 2 s, then repolarized to −50 mV, and returned to −80 mV after 1 s. This voltage stimulation was given every 10 s, and the administration process was started after the hERG potassium current was confirmed to be stable (at least 1 minute). The compound was administered for at least 1 minute at each test concentration, and at least 2 cells (n≥2) were tested at each concentration.
Data analysis processing was carried out by using pClamp 10, GraphPad Prism 5 and Excel software. The inhibition degree of hERG potassium current (peak value of hERG tail current induced at −50 mV) at different compound concentrations was calculated by the following formula: Inhibition %=[1−(I/Io)]×100%.
Among the formula, Inhibition % represents the percentage of inhibition of hERG potassium current by the compound, and I and Io represent the amplitude of hERG potassium current after and before dosing, respectively.
Compound IC50 was calculated using GraphPad Prism 5 software by fitting according to the following equation:
Y=Bottom+(Top−Bottom)/(1+10^((LogIC50−X)×HillSlope))
Among the equation, X represents the Log value of the tested concentration of the test sample, Y represents the inhibition percentage at the corresponding concentration, and Bottom and Top represent the minimum and maximum inhibition percentage, respectively.

The nature of data set [2]: Stability test in mouse liver microsomes. The format is in vitro ADME. The following applies: mouse liver microsomes 0.5 mg/mL, 1 μM compound, NADPH, 37° C.; for microsomal CLint at 1 μM: read-out: CLint(mic). As for the experimental part: 3. Stability Test in Mouse Liver Microsomes At 37° C., 1 μM of the test compound was incubated with mouse liver microsomes (0.5 mg/mL) supplemented with NADPH regeneration system for 5, 10, 20, 30 and 60 minutes, and then LC-MS/MS method was used to detect the concentration of the test compound in the generated sample. The half-life (T1/2) and inherent clearance rate (CLint(mic)) of the compound in mouse liver microsome solution were obtained by calculating at the corresponding time points and the remaining percentage of the compound.

Another data set deals with T2, PDE10A1 (Homo sapiens, UniProt Q9Y233).
T2 construct: purchased Biomol (BPS Bioscience) BPS-60385
T2 sequence (Q9Y233 1-779 isoform Q9Y233-1): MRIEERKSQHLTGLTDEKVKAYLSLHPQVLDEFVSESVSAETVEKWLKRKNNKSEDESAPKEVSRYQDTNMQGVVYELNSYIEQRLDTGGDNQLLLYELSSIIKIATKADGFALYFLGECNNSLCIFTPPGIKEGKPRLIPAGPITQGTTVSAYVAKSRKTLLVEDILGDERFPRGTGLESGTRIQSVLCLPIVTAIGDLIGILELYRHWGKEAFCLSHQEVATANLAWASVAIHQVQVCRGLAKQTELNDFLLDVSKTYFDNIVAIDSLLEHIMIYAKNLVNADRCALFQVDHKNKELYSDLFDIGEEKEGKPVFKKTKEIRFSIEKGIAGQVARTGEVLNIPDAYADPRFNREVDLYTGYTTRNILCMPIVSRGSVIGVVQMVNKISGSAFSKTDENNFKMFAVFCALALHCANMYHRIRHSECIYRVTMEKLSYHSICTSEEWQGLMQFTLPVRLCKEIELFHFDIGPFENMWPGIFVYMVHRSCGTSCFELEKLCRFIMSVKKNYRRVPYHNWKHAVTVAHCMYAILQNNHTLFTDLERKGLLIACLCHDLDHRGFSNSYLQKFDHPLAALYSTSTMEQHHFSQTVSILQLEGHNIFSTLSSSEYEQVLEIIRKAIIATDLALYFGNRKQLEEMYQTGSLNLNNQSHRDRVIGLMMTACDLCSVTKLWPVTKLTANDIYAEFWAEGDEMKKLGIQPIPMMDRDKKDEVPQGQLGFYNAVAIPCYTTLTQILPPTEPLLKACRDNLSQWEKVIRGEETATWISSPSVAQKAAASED
The data set is described as follows: PDE10A1 inhibition by fluorescence polarization. The format is biochemical. The following applies: PDE10A1 kit, read-out: IC50 (μM), inhibitory effect on PDE10A1. The source says:
8. Activity of the Compounds on PDE10A1
In this experiment, the effect of the compounds on the inhibition of PDE10A1 activity was detected by the method of fluorescence polarization. PDE10A1 kit was used for detection (Biomol, BPS-60385). […]
On the technique in general: Fluorescence polarisation rises when a labelled molecule tumbles more slowly, as on binding a larger partner.

The nature of data set [3]: Stability test in monkey liver microsomes. It counts as in vitro ADME. The procedure: 4. Stability Test in Monkey Liver Microsomes At 37° C., 1 μM of the test compound was incubated with monkey liver microsomes (0.5 mg/mL) supplemented with NADPH regeneration system for 5, 15, 30, 45 and 60 minutes, and then LC-MS/MS method was used to detect the concentration of the test compound in the generated sample. The half-life (T1/2) and inherent clearance rate (CLint(mic)) of the compound in monkey liver microsome solution were obtained by calculating at the corresponding time points and the remaining percentage of the compound.

For the next data set, the target named is T3, GLP-1 receptor (Homo sapiens, UniProt P43220).
T3 construct: expressed in transfected cells
T3 sequence (P43220 24-463): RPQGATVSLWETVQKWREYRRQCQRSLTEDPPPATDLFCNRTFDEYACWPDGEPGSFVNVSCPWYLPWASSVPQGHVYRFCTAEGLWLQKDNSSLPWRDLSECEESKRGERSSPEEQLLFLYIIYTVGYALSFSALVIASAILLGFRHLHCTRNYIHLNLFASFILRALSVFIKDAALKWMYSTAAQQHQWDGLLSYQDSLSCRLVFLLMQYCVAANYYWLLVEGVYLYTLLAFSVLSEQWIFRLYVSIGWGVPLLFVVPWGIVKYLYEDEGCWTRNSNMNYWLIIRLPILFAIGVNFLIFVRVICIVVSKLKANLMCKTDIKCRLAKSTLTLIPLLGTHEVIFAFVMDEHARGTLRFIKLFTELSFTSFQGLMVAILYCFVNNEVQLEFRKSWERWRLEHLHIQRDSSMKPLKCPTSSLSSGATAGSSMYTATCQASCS
The experiment in a line: HEK293/CRE-luc/GLP-1R cell luciferase reporter test (agonistic effect on GLP-1 receptor). It counts as cell-based. The settings on record: HEK293/CRE-luc/GLP-1R cells. As for the experimental part:
1. HEK293/CRE-luc/GLP-1β cell viability
Cell: HEK293/CRE-luc/GLP-1R
Cell culture medium: DMEM+10% FBS+400 μg/ml G418+100 μg/ml Hygromycin B
Frozen stock solution: 90% FBS, 10% (V/V) DMSO
Detection buffer: DMEM+1% FBS
Cells were cultured in DMEM medium+10% FBS+400 μg/ml G418+100 μg/ml Hygromycin B in a CO2 incubator at 37° C., and passaged once every 3-4 days.
Cell plating: Trypsinization adjusted the cell density to 1.67×10^5 cells/mL; 60 μL of cells per well (10000 cells/well) was inoculated in a 384-well plate containing compounds; A NC well (negative control) and a background well (no cells) were set. Incubation was performed for about 18+2 h in the incubator.
Compounds were serially diluted with the detection buffer, and the detection concentration was 0.01 nM-1000 nM.
The cell culture plate was removed and all supernatant was aspirated from the cells. The cells were washed gently 2 times with 1×PBS.
The diluted compound was added to a 384-well plate (10 μL/well), and three replicate wells were set for each concentration. 10 μL of the detection buffer was added to the NC well, sealed and incubated at 37° C. for 6 hours.
The plate was removed, the cells were allowed to equilibrate to room temperature (at least 15 min), and then all supernatant was aspirated from the cells.
Steady-Glo® Reagent was added to the sample well at 10 μL/well and incubated at room temperature for 5 min to lyse the cells.
The test results were read with a BMG microplate reader.
The mean background value was calculated.
The induction factor (Fold of induction, FI)=(induction well value−background value)/(negative control well value −background value) was calculated.
The EC50 value of the sample was calculated using Graphpad Prim 8.0 software using four-parameter fitting analysis.
Mean and standard error (Mean±SEM) were calculated for all results and Graphpad Prism software was used for statistical analysis. Specific data were presented in the form of graphs. P<0.05 was considered to be statistically different.
Background: A reporter such as luciferase makes a cellular process visible.

Data set [4] is described as follows: Stability test in human liver microsomes. It counts as in vitro ADME. The settings on record: human liver microsomes 0.5 mg/mL, 1 μM compound, NADPH, 37° C. As for the experimental part:
7. Stability Test in Human Liver Microsomes At 37° C., 1 μM of the test compound was incubated with human liver microsomes (0.5 mg/mL) supplemented with NADPH regeneration system for 5, 10, 20, 30 and 60 minutes, and then LC-MS/MS method was used to detect the concentration of the test compound in the generated sample. The half-life (T1/2) and inherent clearance rate (CLint(mic)) of the compound in human liver microsome solution were obtained by calculating at the corresponding time points and the remaining percentage of the compound.

Setting [5] is: 6 hours incubation, class symbols, read-out: EC50.
[6] abbreviates: bound stated, read-out: EC50 value.

T1 sequence (Q12809 whole entry): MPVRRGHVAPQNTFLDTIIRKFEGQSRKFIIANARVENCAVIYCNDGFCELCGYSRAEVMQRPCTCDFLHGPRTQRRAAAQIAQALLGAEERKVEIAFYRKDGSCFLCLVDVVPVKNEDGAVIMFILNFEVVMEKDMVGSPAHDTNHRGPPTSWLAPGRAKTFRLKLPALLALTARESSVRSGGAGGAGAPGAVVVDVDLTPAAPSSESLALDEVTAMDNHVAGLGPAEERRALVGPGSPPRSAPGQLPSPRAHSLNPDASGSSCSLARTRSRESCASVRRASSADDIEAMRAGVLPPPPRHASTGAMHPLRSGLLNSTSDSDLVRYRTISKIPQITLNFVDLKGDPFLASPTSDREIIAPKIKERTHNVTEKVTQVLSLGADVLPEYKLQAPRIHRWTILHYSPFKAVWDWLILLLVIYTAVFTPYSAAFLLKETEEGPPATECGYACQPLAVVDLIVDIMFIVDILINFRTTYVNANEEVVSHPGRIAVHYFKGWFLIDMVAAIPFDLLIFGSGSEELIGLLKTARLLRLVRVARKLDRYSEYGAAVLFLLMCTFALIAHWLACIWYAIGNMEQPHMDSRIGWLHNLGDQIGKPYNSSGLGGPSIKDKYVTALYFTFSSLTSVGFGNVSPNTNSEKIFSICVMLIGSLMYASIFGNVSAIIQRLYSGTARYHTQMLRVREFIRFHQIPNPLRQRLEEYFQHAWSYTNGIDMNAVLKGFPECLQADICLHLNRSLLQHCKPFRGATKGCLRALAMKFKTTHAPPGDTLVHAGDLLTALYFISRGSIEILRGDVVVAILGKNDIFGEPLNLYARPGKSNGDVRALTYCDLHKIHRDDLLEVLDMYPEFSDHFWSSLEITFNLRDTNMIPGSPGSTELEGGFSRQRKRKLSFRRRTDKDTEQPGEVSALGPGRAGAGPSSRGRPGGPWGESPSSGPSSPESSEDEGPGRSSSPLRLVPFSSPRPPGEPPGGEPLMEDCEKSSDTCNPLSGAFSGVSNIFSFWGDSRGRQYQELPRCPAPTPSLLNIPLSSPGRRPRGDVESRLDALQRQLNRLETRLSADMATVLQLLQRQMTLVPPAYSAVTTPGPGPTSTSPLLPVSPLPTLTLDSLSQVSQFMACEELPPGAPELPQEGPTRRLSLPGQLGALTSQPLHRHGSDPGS

In general, half-life refers to the time needed for the level to fall by half in the phase considered. One may read the IC50 as the point on the concentration scale where inhibition reaches its midpoint. For `N#Cc1ccc(COc2cccc(C3CCN(Cc4nc5sc(C(=O)O)cc5n4C[C@@H]4CCO4)CC3)n2)c(F)c1` [Compound 1, (S)-2-((4-(6-((4-cyano-2-fluorobenzyl)oxy)pyridin-2-yl)piperidin-1-yl)methyl)-1-(oxetan-2-ylmethyl)-1H-thieno[2,3-d]imidazole-5-carboxylic acid], the microsomal CLint at 1 μM in data set [1] (microsomes) came out at 0.23 µL/min/mg. The half-life at 1 μM in data set [1] (canine liver microsomes 0.5 mg/mL, 1 μM compound, NADPH, 37° C.) worked out at 102 h. This compound had an IC50 on hERG potassium channel of 33600 nM.

`N#Cc1ccc(COc2cccc(C3=CCN(Cc4nc5sc(C(=O)O)cc5n4C[C@@H]4CCO4)CC3)n2)c(F)c1` [Compound 2, (S)-2-((6-((4-cyano-2-fluorobenzyl)oxy)-3′,6′-dihydro-[2,4′-bipyridin]-1′(2′H)-yl)methyl)-1-(oxetan-2-ylmethyl)-1H-thieno[2,3-d]imidazole-5-carboxylic acid]: the half-life at 1 μM in data set [2] was determined as 23.6 h; in data set [3] (monkey liver microsomes 0.5 mg/mL, 1 μM compound, NADPH, 37° C.), 14 h. For the same compound, the microsomal CLint at 1 μM was found to be 0.977 µL/min/mg in data set [2] and 1.6 µL/min/mg in data set [3] (monkey, microsomes). Further, the IC50 on PDE10A1 is more than 500 µM; on hERG potassium channel, 52200 nM.

On to `CC1(c2ccc(C#N)cc2F)Oc2cccc(C3CCN(Cc4nc5sc(C(=O)O)cc5n4C[C@@H]4CCO4)CC3)c2O1` (stereo partly drawn) [Compound 5-2], for which, in data set [2], the half-life at 1 μM was 93.1 h and the microsomal CLint at 1 μM is 0.252 µL/min/mg. In addition, the half-maximal inhibitory concentration (IC50) against hERG potassium channel is more than 40000 nM.

By EC50 is commonly meant the concentration giving half of the maximal effect. Consider `CC1(c2ccc(Cl)cn2)Oc2cccc(C3CCN(Cc4nc5sc(C(=O)O)cc5n4C[C@@H]4CCO4)CC3)c2O1` (stereo partly drawn) [Compound 24, 2-((4-(2-(5-chloropyridin-2-yl)-2-methylbenzo[d][1,3]dioxol-4-yl)piperidin-1-yl)methyl)-1-(((S)-oxetan-2-yl)methyl)-1H-thieno[2,3-d]imidazole-5-carboxylic acid], for which the EC50 at GLP-1 receptor (setting [5]) and at GLP-1 receptor (setting [6]) was less than 10 nM each time.

As for `N#Cc1ccc(COc2cccc(-c3ccc(Cc4nc5ccc(C(=O)O)cc5n4C[C@@H]4CCO4)c(F)c3)n2)c(F)c1` [Compound DZ-6, reference compound], the figures for the half-life at 1 μM in data set [2] and in data set [4] were 2.17 h and 2.88 h, respectively. For the same compound, the microsomal CLint at 1 μM was 10.6 µL/min/mg in data set [2] and 8.01 µL/min/mg in data set [4] (read-out: CLint(mic)).

As to `N#Cc1ccc(COc2cccc(C3CCN(Cc4nc5sc(C(=O)O)cc5n4C[C@@H]4CCO4)CC3)n2)c(F)c1` [Trifluoroacetate salt of compound 1, (S)-2-((4-(6-((4-cyano-2-fluorobenzyl)oxy)pyridin-2-yl)piperidin-1-yl)methyl)-1-(oxetan-2-ylmethyl)-1H-thieno[2,3-d]imidazole-5-carboxylic acid], the EC50 on GLP-1 receptor (setting [5]) and on GLP-1 receptor (setting [6]) was less than 10 nM in each case.

Turning to `N#Cc1ccc(COc2cccc(C3=CCN(Cc4nc5sc(C(=O)O)cc5n4C[C@@H]4CCO4)CC3)n2)c(F)c1` [Trifluoroacetate salt of compound 2, (S)-2-((6-((4-cyano-2-fluorobenzyl)oxy)-3′,6′-dihydro-[2,4′-bipyridin]-1′(2′H)-yl)methyl)-1-(oxetan-2-ylmethyl)-1H-thieno[2,3-d]imidazole-5-carboxylic acid], the 50% effective concentration (EC50) at GLP-1 receptor (setting [5]) and at GLP-1 receptor (setting [6]) was less than 10 nM each time.

For `C[C@H]1CN(c2cccc(OCc3ccc(C#N)cc3F)n2)CCN1Cc1nc2sc(C(=O)O)cc2n1C[C@@H]1CCO1` [Trifluoroacetate salt of compound 3, 2-(((S)-4-(6-((4-cyano-2-fluorobenzyl)oxy)pyridin-2-yl)-2-methylpiperazin-1-yl)methyl)-1-(((S)-oxetan-2-yl)methyl)-1H-thieno[2,3-d]imidazole-5-carboxylic acid], the EC50 at GLP-1 receptor (setting [5]) and at GLP-1 receptor (setting [6]) was less than 10 nM throughout.
